What was measured:
zebrafish larvae = experiment: phenoBlast query of behavioral profile database with haloperidol profile; assay type: in vivo; details: screened at 10 μM; cutoff = DMSO control well most similar to haloperidol query; FIGS. 2A-2C
Method: To identify compounds with haloperidol-like behavioral profiles, the behaviors of zebrafish larvae in 29,760 compound-treated wells (including 4,300 known bioactive compounds, 20,000 uncharacterized novel compounds and more than 5,000 DMSO controls) were systematically quantified. Behavioral profiles from each well were compiled into a database. Then, the average profile of three haloperidol (5 μM)-treated wells was used to query the compiled database for additional compounds that cause haloperidol-like phenotypes. […] Four of the known hit compounds were antipsychotic drugs (including three butyrophenones and one tricyclic). A fifth compound, DO 897/99 has been under investigation for treatment of schizophrenia and a sixth compound, lidoflazine, is structurally related to the known antipsychotic amperozide and other antipsychotics in the diphenylbutylpiperidine class (e.g., clopimozide, fluspirilene and pimozide) (FIG. 2C).
The Actiprobe library (TimTec Corporation) contains 10,000 compounds dissolved in DMSO at a stock concentration of 1 mg/ml (˜3 mM). The Chembridge library (Chembridge Corporation) contains 10,000 compounds dissolved in DMSO at a stock concentration of 1 mM. The Spectrum Collection (MicroSource Discovery) contains 2,320 compounds dissolved in DMSO at a concentration of 10 mM. The Prestwick library (Prestwick Chemical) contains 1,280 approved drugs dissolved in DMSO at a stock concentration of 10 mM. […]
Digital video were captured at 25 frames per second using an AVT Pike digital camera. […] To analyze digital video recordings, a motion index was calculated by frame differencing. […]
For each well, the raw motion index from each assay was concatenated into a 10,500-point motion index time series. […] The haloperidol query was calculated by averaging the time series from three replicate haloperidol-treated wells. To calculate the phenoBLAST distance metric, L1 distances were calculated by: phenoBLAST Distance=sum (abs(query-well)), where ‘query’ and ‘well’ indicate their associated time series.

larval zebrafish = experiment: battery of ten zebrafish behavioral assays (motion index); assay type: in vivo; details: for haloperidol-like behavioral phenotype: antipsychotic drugs, FIG. 1B
Method: Haloperidol, a butyrophenone, is known to bind at least 20 molecular targets found in the human brain. To determine how haloperidol affects zebrafish behavior, a battery of ten behavioral assays was developed to compare behavioral profiles from control (DMSO) and haloperidol-treated animals.
A large number of fertilized eggs (up to 20,000 embryos per day) were collected from group matings of Ekkwill zebrafish. Embryos were raised in hatching jars at 28° C. on a 14/10 hour light/dark cycle until 3 days post fertilization (d.p.f.), then transferred to an incubator under the same conditions until 7 d.p.f. Groups of approximately ten larvae (7 d.p.f.) were distributed into the wells of clear flat bottom square well 96-well plates filled with E3 medium (300 μl). Larvae were then incubated at 25° C. on the bench top for one hour prior to chemical treatment and subsequent experiments. All zebrafish protocols were approved by the Institutional Animal Care and Use Committee at Massachusetts General Hospital or at Teleos Therapeutics, LLC.
The Actiprobe library (TimTec Corporation) contains 10,000 compounds dissolved in DMSO at a stock concentration of 1 mg/ml (˜3 mM). The Chembridge library (Chembridge Corporation) contains 10,000 compounds dissolved in DMSO at a stock concentration of 1 mM. The Spectrum Collection (MicroSource Discovery) contains 2,320 compounds dissolved in DMSO at a concentration of 10 mM. The Prestwick library (Prestwick Chemical) contains 1,280 approved drugs dissolved in DMSO at a stock concentration of 10 mM. The Neurotransmitter library (Biomol International; cat. No. 2810) contains 700 compounds dissolved in DMSO at a stock concentration of 10 mM. All compounds were diluted in E3 buffer and screened at 10 μM final concentration and <1% DMSO. Negative controls were treated with an equal volume of DMSO. Stock solutions were added directly to zebrafish in the wells of a 96-well plate, mixed and allowed to incubate for 1 h at room temperature before behavioral evaluation in the Behavioral Battery of assays. Reordered hit compounds were dissolved in DMSO to a stock concentration of 30 mM and added to wells as described above. Hits were retested at a concentration range of 50, 10, 5, 1, 0.5, 0.1, and 0.05 μM in triplicate; assays for retesting were run at 10-minute and 1-hour incubation time points.
Digital video were captured at 25 frames per second using an AVT Pike digital camera. High intensity LEDs were used to deliver violet (405 nm), blue (450 nm), and red (660 nm) light stimuli. Acoustic stimuli were delivered using push-style solenoids to tap the stage. Stimuli and digital recordings were applied to the entire 96-well plate simultaneously. Instrument control and data acquisition were performed using custom MATLAB scripts. Each assay, including video recording and data processing, took ˜40 s per plate per 30 s assay, enabling us to routinely screen 96 wells against a battery of ten assays in less than ten minutes. To analyze digital video recordings, a motion index was calculated by frame differencing. […] The behavioral battery was comprised of ten assays (Assay 1-10) performed in numerical order. phenoBlast ranking and statistics

Structure (SMILES)	phenoBlast similarity to haloperidol (5 μM) query profile, hit ranking (zebrafish larvae)	haloperidol-like behavioral phenotype (larval zebrafish)	other results
COc1ccccc1N1CCN(CCCCNC(=O)c2ccc3ccccc3c2)CC1.Cl.Cl [DO 897/99]	hit compounds		
CN1CCN(CCCN2c3ccccc3Sc3ccc(Cl)cc32)CC1 [prochlorperazine]		cause haloperidol-like behaviors	
O=C(CCCN1CC=C(n2c(=O)[nH]c3ccccc32)CC1)c1ccc(F)cc1 [droperidol]		cause haloperidol-like behaviors	
O=C(CCCN1CCC(O)(c2ccc(Cl)cc2)CC1)c1ccc(F)cc1 [haloperidol]			effect on locomotion of larval zebrafish (larval zebrafish; high concentrations (50 μM)): locomotor impairment; motion index in behavioral battery (larval zebrafish; lower concentrations (5 μM), FIG. 1A): complex pattern of increased activity
CSc1ccc2c(c1)N(CCC1CCCCN1C)c1ccccc1S2 (stereo not shown) [thioridazine]		cause haloperidol-like behaviors	
Cc1cccc(C)c1NC(=O)CN1CCN(CCCC(c2ccc(F)cc2)c2ccc(F)cc2)CC1 [lidoflazine]	hit compounds		
c1ccc2c(c1)Nc1ccccc1S2 [phenothiazine]		cause haloperidol-like behaviors	
O=C(CCCN1CCC(O)(c2ccc(Br)cc2)CC1)c1ccc(F)cc1 [bromperidol]	top ranked hit compound	cause haloperidol-like behaviors	

Reference: patent US20250378918A1, “Phenotype-Based Chemical Screens” (Nemametrix, priority 2015, published 2025)
